Experimental data reported in publication PMC10671693, “Design, Synthesis, and Antitumor Activity Evaluation of Proteolysis-Targeting Chimeras as Degraders of Extracellular Signal-Regulated Kinases 1/2” (International Journal of Molecular Sciences, 2023).
“Also recorded” adds a separate entry of the source. Like-named read-outs stand apart in the source and are kept apart here.

Columns and labels:
ERK1 = settings: cited from earlier work
ERK2 = settings: cited from earlier work
[1] = system: BRAF mutant and RAS mutant cell lines; set-up: method as in PMID 29247021, PMID 28939558; settings: preclinical studies; cited from earlier work
ERK1/2 [2] = assay: Western blot ERK1/2 protein degradation assay in A375 cells; type: cell-based, human
Description: (§1) A375, HCT116, Calu-6, and B16-F10 cells were purchased from American Type Culture Collection (ATCC) and cultured in DMEM high glucose media (SH30022.01, Cytiva, Shanghai, China) supplemented with 10% fetal bovine serum (10099-144, Gibco, Carlsbad, CA, USA) and 1% penicillin/streptomycin (Solarbio, Beijing, China) in an incubator at 37 °C with 5% CO2.
Cells were cultured under the indicated conditions as described in “Cell culture”. Cells were seeded in 6-well plates (3516, Corning, New York, NY, USA). Compounds were dissolved in DMSO for storage (10 mM). Following compound treatment, cells were washed with PBS, scraped from the plate, and lysed using cell lysis buffer (Applygen, Beijing, China). After the protein in the cell lysate was quantified via the BCA quantification method, the samples were placed in a metal bath at 100 °C and heated for 5 min. Cell lysates were separated using a 10% SDS–PAGE gel and transferred to PVDF membranes (Merck Millipore, Burlington, MA, USA). The PVDF membrane was blocked with 5% nonfat dry milk in TBST for one hour. The PVDF membrane was transferred to the antibody diluent and incubated overnight at 4 °C. PVDF membranes were washed three times with TBST for 5 min each and then incubated with the appropriate HRP-conjugated secondary antibody for 1 h at room temperature. After washing three more times with TBST, the PVDF membrane was stained with a hypersensitive ECL chemiluminescence reagent (Biodragon, Beijing, China) and then imaged with Tanon 5200. Grayscale quantitative analysis was performed using ImageJ software. Statistical analysis was performed using GraphPad Prism 8. DC50 and Dmax values were fitted using a four-parameter [inhibitor] versus response and reported directly from the Prism output. Mean ± SD and unpaired t tests were performed in GraphPad Prism.

ERK1/2 [3] = assay: Western blot ERK1/2 protein degradation assay in HCT116 cells; type: cell-based, human
Description: A375, HCT116, Calu-6, and B16-F10 cells were purchased from American Type Culture Collection (ATCC) and cultured in DMEM high glucose media (SH30022.01, Cytiva, Shanghai, China) supplemented with 10% fetal bovine serum (10099-144, Gibco, Carlsbad, CA, USA) and 1% penicillin/streptomycin (Solarbio, Beijing, China) in an incubator at 37 °C with 5% CO2. Cells were cultured under the indicated conditions as described in “Cell culture”. Cells were seeded in 6-well plates (3516, Corning, New York, NY, USA). Compounds were dissolved in DMSO for storage (10 mM). Following compound treatment, cells were washed with PBS, scraped from the plate, and lysed using cell lysis buffer (Applygen, Beijing, China). After the protein in the cell lysate was quantified via the BCA quantification method, the samples were placed in a metal bath at 100 °C and heated for 5 min. Cell lysates were separated using a 10% SDS–PAGE gel and transferred to PVDF membranes (Merck Millipore, Burlington, MA, USA). The PVDF membrane was blocked with 5% nonfat dry milk in TBST for one hour. The PVDF membrane was transferred to the antibody diluent and incubated overnight at 4 °C. PVDF membranes were washed three times with TBST for 5 min each and then incubated with the appropriate HRP-conjugated secondary antibody for 1 h at room temperature. After washing three more times with TBST, the PVDF membrane was stained with a hypersensitive ECL chemiluminescence reagent (Biodragon, Beijing, China) and then imaged with Tanon 5200. Grayscale quantitative analysis was performed using ImageJ software. Statistical analysis was performed using GraphPad Prism 8. DC50 and Dmax values were fitted using a four-parameter [inhibitor] versus response and reported directly from the Prism output. Mean ± SD and unpaired t tests were performed in GraphPad Prism.

ERK1/2 [4] = assay: Western blot ERK1/2 protein degradation assay in Calu-6 cells; type: cell-based, human; settings: 48 h, Western blot and grayscale quantification
Description: (§2) A375, HCT116, Calu-6, and B16-F10 cells were purchased from American Type Culture Collection (ATCC) and cultured in DMEM high glucose media (SH30022.01, Cytiva, Shanghai, China) supplemented with 10% fetal bovine serum (10099-144, Gibco, Carlsbad, CA, USA) and 1% penicillin/streptomycin (Solarbio, Beijing, China) in an incubator at 37 °C with 5% CO2. Cells were cultured under the indicated conditions as described in “Cell culture”. Cells were seeded in 6-well plates (3516, Corning, New York, NY, USA). Compounds were dissolved in DMSO for storage (10 mM). Following compound treatment, cells were washed with PBS, scraped from the plate, and lysed using cell lysis buffer (Applygen, Beijing, China). After the protein in the cell lysate was quantified via the BCA quantification method, the samples were placed in a metal bath at 100 °C and heated for 5 min. Cell lysates were separated using a 10% SDS–PAGE gel and transferred to PVDF membranes (Merck Millipore, Burlington, MA, USA). The PVDF membrane was blocked with 5% nonfat dry milk in TBST for one hour. The PVDF membrane was transferred to the antibody diluent and incubated overnight at 4 °C. PVDF membranes were washed three times with TBST for 5 min each and then incubated with the appropriate HRP-conjugated secondary antibody for 1 h at room temperature. […] Grayscale quantitative analysis was performed using ImageJ software. […]

ERK1/2 [5] = assay: Western blot ERK1/2 protein degradation assay in B16-F10 cells; type: cell-based; settings: B16-F10 murine melanoma cells, 48 h
Description: as §2

A375 cells [6] = assay: Cell proliferation (CCK8) assay, A375; type: cell-based; settings: Homo sapiens, A-375, A375, 72 h, read-out: IC50 (growth inhibition, cytotoxicity)
Description: as §1
(§3) A 96-well plate (3599, Corning, New York, NY, USA) was inoculated with 100 μL of complete medium containing 10,000 cells, and the experimental, control, and blank groups were established. Three parallel wells were used per concentration. After 10 h, the media from the experimental and control groups were replaced with a compound containing the indicated concentration of the complete medium. Cells were incubated for 72 h before 10 μL of CCK8 reagent (CA1210, Solarbio, Beijing, China) was added to each well and incubated for 1 h. Using a microplate reader (Tecan, Mannendorf, Switzerland), the absorbance at 450 nm was measured. The IC50 values were determined using GraphPad Prism 8 and nonlinear regression curve fitting.

HCT116 cells = assay: Cell proliferation (CCK8) assay, HCT116; type: cell-based, human; settings: HCT116, 72 h, read-out: IC50 (growth inhibition, cytotoxicity)
Description: as §1, §3

Calu-6 cells = assay: Cell proliferation (CCK8) assay, Calu-6; type: cell-based; settings: Homo sapiens, Calu-6, 72 h, read-out: IC50 (growth inhibition, cytotoxicity)
Description: as §1, §3

A375 cells [7] = assay: Transwell migration assay; type: cell-based, human; settings: 24 h
Description: A total of 100 µL of FBS-free DMEM high-glucose medium containing 20,000 cells was added to the upper layer of the Transwell chamber of a 24-well plate (3422, Corning, New York, NY, USA), and a complete medium containing 10% FBS was added to the lower layer. The experimental group and the control group were established. The control group used DMSO (DMSO concentration in the culture medium was no more than 0.5% in each well), and the specified concentration of compounds was added to the medium of the experimental group. The cells were then placed in an incubator for 24 h. The cells were washed with PBS, the cells in the upper layer of the Transwell chamber were wiped off with a cotton swab, and the cells were fixed with cold methanol for 15 min. The cells were stained with crystal violet reagent and observed and photographed under a microscope. Then, crystal violet was washed with 33% acetic acid and the absorbance was measured at a wavelength of 590 nm. Graphing with GraphPad Prism 8 after counting cells was performed.

HCT116 tumor = assay: HCT116 subcutaneous xenograft model in nude mice; type: in vivo
Description: Male BALB/c nude mice of around 8 weeks old were purchased from Charles River (Beijing, China). Nude mice were raised in SPF-grade animal rooms and had access to water and food ad libitum. HCT116 colorectal cancer cells were grown in DMEM supplemented with 10% fetal calf serum and 1% penicillin/streptomycin under standard cell culture conditions. HCT116 xenografts were prepared by subcutaneously injecting 5× 10^6 cells suspended in PBS into the right flank of each male BALB/c nude mouse. Tumor growth was monitored via caliper measurement, and volume was calculated using the following equation: 0.5 × max (length/width) × min (length/width) × min (length/width). When the tumors reached an average of approximately 100 mm^3, the mice were randomized into groups of five. The mice were injected intraperitoneally once a day at doses of 6, 12, 25 mg/kg compound B1-10J and 25 mg/kg 5-FU. Body weights and tumor volumes were measured every 2–3 days. All studies were appropriately statistically powered.

HCT116 mouse xenografts = system: HCT116 mouse xenografts; set-up: method as in PMID 27227380; settings: cited from earlier work
tumor = system: tumor; set-up: method as in PMID 28376306; settings: daily dose of 50 mg/kg; cited from earlier work

For `CC(C)Nc1cc(-c2c[nH]c(C(=O)N[C@H](CO)c3cccc(Cl)c3)c2)c(Cl)cn1` [BVD-523], the Ki (ERK1) is listed as under 0.3 nM, the Ki (ERK2) is listed as 0.04 nM and the anticancer activity [1] is listed as “demonstrated anticancer activity”.
For `Cc1cccc(CN2C(=O)c3cc(-c4nc(Nc5ccnc(C#CCCN(C)CCCCCCCCCCNc6cccc7c6C(=O)N(C6CCC(=O)NC6=O)C7=O)c5)ncc4C)cn3C[C@H]2C)n1` (stereo partly shown) [Compound B1-10J], the “time after which ERK1/2 protein level returned to normal” value (ERK1/2 [2]; 1 μM) was over 48 h, the “time at which ERK1/2 degradation nearly reached its highest level” value (ERK1/2 [2]; 1 μM) was 24 h and the “time at which ERK1/2 protein began to degrade” value (ERK1/2 [2]; 1 μM) was 6 h. For the same molecule, the “ERK1/2 degradation with/without MG132 and MLN4924” value (ERK1/2 [2]; 24 h, B1-10J 1 μM, MG132 1 μM, MLN4924 1 μM) was “only degraded by B1-10J alone”, the “concentration dependence of ERK1/2 degradation (hook effect)” value (ERK1/2 [2]; 24 h, large range of concentrations) was “typical “hook” effect” and the “ERK1/2 degradative activity (in words)” value (ERK1/2 [2]; 48 h, Western blot) was “slightly increased DC50; also recorded: effective ERK1/2 degraders”. The DC50 (ERK1/2 [2]; 48 h, Western blotting and grayscale quantification) was 498 ± 369 nM, the “duration of ERK1/2 degradation” value (ERK1/2 [3]; 1 μM) was “up to 72 h” and the “time at which ERK1/2 degradation nearly reached its highest level” value (ERK1/2 [3]; 1 μM) was 24 h. For the same molecule, the “time at which ERK1/2 protein began to degrade” value (ERK1/2 [3]; 1 μM) was 6 h, the DC50 (ERK1/2 [3]; 48 h, Western blot and grayscale quantification) was 102 nM and the DC50 (ERK1/2 [4]) was 85 nM. The “ERK1/2 degradative activity (in words)” value (ERK1/2 [5]) was “weak degradative activity”, the IC50 (A375 cells [6]) was over 30000 nM and the IC50 (HCT116 cells) was 2100 nM. For the same molecule, the IC50 (HCT116 cells; Homo sapiens, HCT-116, 72 h) was 2200 nM, the IC50 (Calu-6 cells) was 15900 nM and the “decrease of migration rate” value (A375 cells [7]; 1 μM, crystal violet absorbance 590 nm) was “more than 50%”. The “cell migration (in words)” value (A375 cells [7]; Transwell chamber) was “dose-dependently inhibited; also recorded: decreased markedly; also recorded: significantly prevented the migration”, the tumor growth inhibition (HCT116 tumor; 25 mg/kg daily, intraperitoneal, up until day 19) was “approximately 50%” and the “tumor growth inhibition, dose dependence” value (HCT116 tumor; 6, 12, 25 mg/kg Q.D., intraperitoneal) was “dose-dependent manner”. The “antitumor effect (in words)” value (HCT116 tumor; daily dose of 25 mg/kg, intraperitoneal, 25 mg/kg) was “more effective at a 25 mg/kg dose than 5-FU” and the “body weight / tolerability” value (HCT116 tumor; nude mice with HCT116 xenograft, during treatment) was “well-tolerated”.
In the case of `Cn1nccc1Nc1nccc(-c2ccn([C@H](CO)c3ccc(Cl)c(F)c3)c(=O)c2)n1` [GDC-0994, (S)-1-(1-(4-Chloro-3-fluorophenyl)-2-hydroxyethyl)-4-(2-((1-methyl-1H-pyrazol-5-yl)amino)pyrimidin-4-yl)pyridin-2(1H)-one], the IC50 (ERK1) is given as […], the IC50 (ERK2) is given as […] and the antitumor activity (HCT116 mouse xenografts) is given as “potent antitumor activity”.
For `Cc1cccc(CN2C(=O)c3cc(-c4nc(Nc5ccnn5C)ncc4C)cn3C[C@H]2C)n1` [compound 35], the IC50 (ERK2) is listed as under 0.3 nM and the antitumor effect (tumor) is listed as “significant tumor regression”.
